Results published in article PMC10136361 (Biomolecules, 2023).

Columns and labels:
MmGSTP1-1 [1] = biological target: T1, MmGSTP1-1 (Mus musculus, UniProt P19157); assay: CDNB-GSH enzyme assay, single concentration […]; type: biochemical; conditions: read-out: % inhibition at 25 μM
T1 construct: gene Gstp1; recombinant MmGSTP1-1 (GenBank BC061109.1), expressed in E. coli

MmGSTP1-1 [2] = biological target: T1, MmGSTP1-1; assay: steady-state kinetics (Km); type: biochemical
MmGSTP1-1 [3] = biological target: T1, MmGSTP1-1; assay: X-ray co-crystal structure, […] Å; type: binding
MmGSTP1-1 [4] = biological target: T1, MmGSTP1-1; assay: CDNB-GSH enzyme assay at […] nm, inhibition kinetics (KiE, GSH varied); IC50 […]; type: biochemical

T1 sequence (P19157 2-210): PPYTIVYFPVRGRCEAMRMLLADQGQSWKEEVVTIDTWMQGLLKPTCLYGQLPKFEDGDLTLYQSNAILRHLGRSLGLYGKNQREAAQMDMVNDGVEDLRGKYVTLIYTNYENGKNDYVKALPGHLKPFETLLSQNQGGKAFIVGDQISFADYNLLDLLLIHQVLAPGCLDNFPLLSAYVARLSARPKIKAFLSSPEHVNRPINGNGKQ

## Cc1cc(C)c(C2=C(OC(=O)CC(C)(C)C)C3(CCCC3)OC2=O)c(C)c1 [spiromesifen]
MmGSTP1-1 [1]
  inhibition at 25 µM: 70%

## O=[N+]([O-])c1ccc(Cl)c([N+](=O)[O-])c1 [1-chloro-2,4-dinitrobenzene]
MmGSTP1-1 [2]
  Km: 800 ± 40 µM

## CSC1=N[C@@](C)(c2ccccc2)C(=O)N1Nc1ccccc1 [fenamidone]
MmGSTP1-1 [1]
  inhibition at 25 µM: 53%

## N[C@@H](CCC(=O)N[C@@H](CSCc1ccc([N+](=O)[O-])cc1)C(=O)NCC(=O)O)C(=O)O [S-(p-nitrobenzyl)glutathione]
MmGSTP1-1 [3]
  X-ray co-crystal structure, 1.28 Å: A molecule of Nb-GSH was found bound in the active site of each molecule of the dimer

## CC1(C)[C@H](C(=O)O[C@H](C#N)c2cccc(Oc3ccccc3)c2)[C@@H]1C=C(Br)Br [deltamethrin]
MmGSTP1-1 [1]
  inhibition at 25 µM: 82%

## O=S1OC[C@@H]2[C@H](CO1)[C@@]1(Cl)C(Cl)=C(Cl)[C@]2(Cl)C1(Cl)Cl (stereo partly drawn) [α-endosulfan]
MmGSTP1-1 [1]
  inhibition at 25 µM: 58%

## CC(C)NC(=O)N1CC(=O)N(c2cc(Cl)cc(Cl)c2)C1=O [iprodione, 3-(3,5-dichlorophenyl)-2,4-dioxo-N-propan-2-ylimidazolidine-1-carboxamide]
MmGSTP1-1 [4]
  Ki: 5.2 ± 0.1 µM
